Key:
[1] = Inhibition of melanin synthesis in NHEM cells assessed as [14C]thiouracil incorporation after 72 hrs by liquid scintillation counting; type: functional, cell-based, Homo sapiens
[2] = Cytotoxicity against NHEM cells assessed as cell viability after 72 hrs by WST-8 assay; type: cell-based; settings: human

Structure (SMILES) | IC50 ([1]; Homo sapiens, NHEM, 72 h) | Activity [2] | IC50 ([1]; nhem)
CC(C)=CCc1cc2c(c(CC=C(C)C)c1O)O[C@H](c1ccc(O)cc1)CC2=O | 2.52 µM | Non-toxic | 
CC(C)=CCc1c(O)c(CC=C(C)C)c2c(c1O)C(=O)C[C@@H](c1cc3c(cc1O)OC(C)(C)C=C3)O2 (stereo in doubt) [EUCHRENONE A3] |  |  | 1.02 µM
CC(C)=CCc1c(O)c(CC=C(C)C)c2c(c1O)C(=O)C[C@@H](c1cc3c(cc1O)OC(C)(C)C=C3)O2 (stereo in doubt; 45) [EUCHRENONE A3] | 1.51 µM | Non-toxic | 
CC(C)=CCc1cc([C@@H]2CC(=O)c3c(O)c(CC=C(C)C)c(O)c(CC=C(C)C)c3O2)ccc1O [AMORILIN] | 1.21 µM |  | 
CC(C)=CCc1cc([C@@H]2CC(=O)c3c(O)c(CC=C(C)C)c(O)c(CC=C(C)C)c3O2)cc(O)c1O [AMORISIN] | 3.6 µM |  | 
OC[C@H]1O[C@@H](Oc2ccc(O)cc2)[C@H](O)[C@@H](O)[C@@H]1O [ARBUTIN] | 103 µM |  | 
CC(C)=CCc1cc2c(cc1O)O[C@H](c1ccc(O)cc1)CC2=O [BAVACHIN] | 2.7 µM | Non-toxic | 
CC(C)=CCc1c(O)c2c(c3c1OC(C)(C)C=C3)O[C@H](c1ccc(O)cc1)CC2=O [CAJAFLAVANONE] | 8.41 µM | Non-toxic | 
CC(C)=CCc1c(O)ccc2c1O[C@H]1c3ccc(O)c(CC=C(C)C)c3OC[C@@H]21 [ERYBRAEDIN A] | 3.84 µM | Non-toxic | 
CC(C)=CCc1cc2c(cc1O)OC[C@H]1c3ccc(O)c(CC=C(C)C)c3O[C@@H]21 [ERYBRAEDIN C] | 2 µM | Non-toxic | 
CC(C)=CCc1c(O)ccc2c1OC[C@H]1c3ccc4c(c3O[C@@H]21)C=CC(C)(C)O4 [ERYBREADIN B] | 2.93 µM | Non-toxic | 
CC(C)=CCc1cc2c(cc1O)OC[C@H]1c3ccc4c(c3O[C@@H]21)C=CC(C)(C)O4 [FOLITENOL] | 1.84 µM | Non-toxic | 
O=c1c(-c2ccc(O)cc2)coc2cc(O)cc(O)c12 [GENISTEIN] | 29.2 µM | Non-toxic | 
Oc1ccc(O)cc1 [HYDROQUINONE] | 2.2 µM |  | 
CC(C)=CCc1cc([C@@H]2CC(=O)c3c(O)c(CC=C(C)C)c(O)c(CC=C(C)C)c3O2)c(O)cc1O [LESPEDEZAFLAVANONE H] | 7.8 µM |  | 
COc1ccc([C@@H]2CC(=O)c3cc(CC=C(C)C)c(O)c(CC=C(C)C)c3O2)cc1 [LESPEFLORIN A1] | 3.96 µM | Non-toxic | 
COc1ccc([C@@H]2CC(=O)c3ccc(O)c(CC=C(C)C)c3O2)cc1 [LESPEFLORIN A2] | 3.86 µM | Non-toxic | 
CC(C)=CCc1cc2c(c(CC=C(C)C)c1O)O[C@H](c1ccc3c(c1)C=CC(C)(C)O3)CC2=O [LESPEFLORIN A3] | 1.5 µM | Non-toxic | 
COc1cc(O)ccc1[C@@H]1CC(=O)c2c(O)cc3c(c2O1)C=CC(C)(C)O3 [LESPEFLORIN A4] | 4.93 µM | Non-toxic | 

Structure (SMILES) | IC50 ([1]; Homo sapiens, NHEM, 72 h) | Activity [2] | IC50 ([1]; nhem)
CC(C)=CCc1cc([C@H]2Oc3cc(O)c(CC=C(C)C)cc3C(=O)[C@@H]2O)ccc1O [LESPEFLORIN B1] | 2.87 µM | Non-toxic | 
CC(C)=CCc1cc2c(c(CC=C(C)C)c1O)O[C@H](c1ccc(O)cc1)[C@@H](O)C2=O [LESPEFLORIN B2] | 2.19 µM | Non-toxic | 
CC(C)=CCc1cc([C@H]2Oc3c(cc(CC=C(C)C)c(O)c3CC=C(C)C)C(=O)[C@@H]2O)ccc1O [LESPEFLORIN B3] | 0.68 µM | Non-toxic | 
CC(C)=CCc1cc([C@H]2Oc3c(CC=C(C)C)c(O)c(CC=C(C)C)c(O)c3C(=O)[C@@H]2O)ccc1O [LESPEFLORIN B4] | 1.23 µM | Non-toxic | 
CC(C)=CCc1cc(C(=O)[C@@H](O)Cc2ccc(O)cc2)c(O)cc1O [LESPEFLORIN C1] | > 146 µM | Non-toxic | 
COc1ccc(C[C@H](O)C(=O)c2cc(CC=C(C)C)c(O)cc2O)cc1 [LESPEFLORIN C2] | 28.1 µM | Non-toxic | 
COc1cc(O)c(CC=C(C)C)cc1C(=O)[C@@H](O)Cc1ccc(O)cc1 [LESPEFLORIN C3] | 1.68 µM | Non-toxic | 
COc1ccc(C[C@H](O)C(=O)c2cc(CC=C(C)C)c(O)cc2OC)cc1 [LESPEFLORIN C4] | > 135 µM | Non-toxic | 
CC(C)=CCc1cc(C(=O)[C@@H](O)Cc2ccc(O)cc2)c(O)c(C)c1O [LESPEFLORIN C5] | > 135 µM | Non-toxic | 
CC(C)=CCc1cc(C(=O)[C@@H](O)Cc2ccc(O)cc2)c(O)c(CC=C(C)C)c1O [LESPEFLORIN C6] | 22 µM | Non-toxic | 
COc1cc2c(cc1C(=O)[C@@H](O)Cc1ccc(O)cc1)C=CC(C)(C)O2 [LESPEFLORIN C7] | 3.78 µM | Non-toxic | 
COc1c([C@@H]2COc3c(ccc(O)c3CC=C(C)C)C2=O)ccc(O)c1CC=C(C)C [LESPEFLORIN D1] | 1.47 µM | Non-toxic | 
COc1c(O)ccc2c1OCC(c1ccc(O)c(OC)c1OC)=C2 [LESPEFLORIN E1] | 4.29 µM | Non-toxic | 
COc1c(O)ccc(-c2cc3ccc(O)c(OC)c3o2)c1OC [LESPEFLORIN F1] | 10.8 µM | Non-toxic | 
COc1cc2c(CO)c(-c3ccc(O)cc3O)oc2c(CC=C(C)C)c1O [LESPEFLORIN F2] | 8.27 µM | Non-toxic | 
COc1cc2c(cc1O)O[C@H]1c3ccc(O)c(CC=C(C)C)c3OC[C@@H]21 [LESPEFLORIN G1] | 3.73 µM | Non-toxic | 
COc1c(O)cc2c(c1CC=C(C)C)O[C@H]1c3cc(CC=C(C)C)c(O)cc3OC[C@@H]21 [LESPEFLORIN G2] | 2.07 µM | Non-toxic | 
COc1c(O)cc2c(c1CC=C(C)C)O[C@H]1c3c(cc(O)c(CC=C(C)C)c3OC)OC[C@@H]21 [LESPEFLORIN G3] | 2.03 µM | Non-toxic | 
CC(C)=CCc1cc2c(cc1O)OC[C@H]1c3cc(C)c(O)c(CC=C(C)C)c3O[C@@H]21 [LESPEFLORIN G4] | 3.24 µM | Non-toxic | 

Structure (SMILES) | IC50 ([1]; Homo sapiens, NHEM, 72 h) | Activity [2] | IC50 ([1]; nhem)
CC(C)=CCc1c(O)c(C)cc2c1O[C@H]1c3ccc(O)c(CC=C(C)C)c3OC[C@@H]21 [LESPEFLORIN G5] | 1.52 µM | Non-toxic | 
COc1c(C)cc2c(c1CC=C(C)C)O[C@H]1c3ccc(O)cc3OC[C@@H]21 [LESPEFLORIN G6] | 6.16 µM | Non-toxic | 
COc1cc2c(c(CC=C(C)C)c1O)O[C@H]1c3ccc(O)cc3OC[C@@H]21 [LESPEFLORIN G7] | 6.02 µM | Non-toxic | 
COc1ccc2c(c1)OC[C@H]1c3cc(O)c(OC)c(CC=C(C)C)c3O[C@@H]21 [LESPEFLORIN G8] | 1.63 µM | Non-toxic | 
COc1ccc2c(c1)OC[C@H]1c3cc(OC)c(O)c(CC=C(C)C)c3O[C@@H]21 [LESPEFLORIN G9] | 8.38 µM | Non-toxic | 
CC(C)=CCc1c(O)c(C)cc2c1O[C@H]1c3ccc(O)cc3OC[C@@H]21 [LESPEFLORIN G10] | 1.44 µM | Non-toxic | 
CC(C)=CCc1cc2c(cc1O)OC[C@H]1c3cc(O)c4c(c3O[C@@H]21)C=CC(C)(C)O4 [LESPEFLORIN G11] | 2.9 µM | Non-toxic | 
COc1ccc2c(c1)OC[C@H]1c3cc(O)c4c(c3O[C@@H]21)C=CC(C)(C)O4 [LESPEFLORIN G12] | 8.34 µM | Non-toxic | 
COc1ccc2c(c1)OCc1c-2oc2c(CC=C(C)C)c(O)c(O)cc12 [LESPEFLORIN H1] | 27 µM | Non-toxic | 
COc1ccc2c(c1)OCc1c-2oc2c3c(c(O)cc12)OC(C)(C)C=C3 [LESPEFLORIN H2] | 1.48 µM | Non-toxic | 
CC(C)=CCc1cc2c(cc1O)oc(=O)c1c3cc(O)c(O)cc3oc21 [LESPEFLORIN I1] | 3.21 µM | Non-toxic | 
CC(C)=CCc1cc2c(cc1O)oc(=O)c1c3cc(O)c(O)c(CC=C(C)C)c3oc21 [LESPEFLORIN I2] | 28.3 µM | Non-toxic | 
COc1ccc2c(c1)oc(=O)c1c3cc(O)c(O)c(CC=C(C)C)c3oc21 [LESPEFLORIN I3] | 27.3 µM | Non-toxic | 
CC(C)=CCc1cc(-c2oc3c(CC=C(C)C)c(O)c(O)cc3c2C(=O)c2cc3c(c(CC=C(C)C)c2O)O[C@H]2c4ccc(O)c(CC=C(C)C)c4OC[C@@H]32)c(O)cc1O [LESPEFLORIN J1] | 39.6 µM | Non-toxic | 
COc1ccc(-c2oc3c(CC=C(C)C)c(O)c(O)cc3c2C(=O)c2cc3c(c(CC=C(C)C)c2O)O[C@H]2c4ccc(O)c(CC=C(C)C)c4OC[C@@H]32)c(O)c1 [LESPEFLORIN J2] | > 52.8 µM | Non-toxic | 
CC(C)=CCc1cc(-c2oc3c(CC=C(C)C)c(O)c(O)cc3c2C(=O)c2cc3c(c(CC=C(C)C)c2O)O[C@H]2c4cc(CC=C(C)C)c(O)cc4OC[C@@H]32)c(O)cc1O [LESPEFLORIN J3] | 37.7 µM | Non-toxic | 
COc1ccc(-c2oc3c(CC=C(C)C)c(O)c(O)cc3c2C(=O)c2cc3c(c(CC=C(C)C)c2O)O[C@H]2c4cc(CC=C(C)C)c(O)cc4OC[C@@H]32)c(O)c1 [LESPEFLORIN J4] | > 52.8 µM | Non-toxic | 
CC(C)=CCc1cc([C@@H]2CC(=O)c3c(cc(O)c(CC=C(C)C)c3O)O2)ccc1O [MACARANGAFLAVANONE B] | 2.59 µM | Non-toxic | 
CC(C)=CCc1cc([C@@H]2CC(=O)c3cc(CC=C(C)C)c(O)c(CC=C(C)C)c3O2)ccc1O [PROSTRATOL] | 0.98 µM | Non-toxic | 

From ChEMBL document CHEMBL1151969, “Melanin synthesis inhibitors from Lespedeza floribunda” (J Nat Prod, 2009)
